Laboratory results as given in ChEMBL document CHEMBL2046420, “Edible Myrciaria vexator fruits: bioactive phenolics for potential COPD therapy” (Bioorg Med Chem, 2012).
Active and inactive are the calls of the source. The rule behind the calls is not given here.

How the values were obtained:
[1] = Inhibition of CPE-induced MMP1 mRNA expression in human SAE cells after 24 hrs by quantitative RT-PCR analysis relative to control; assay type: functional
[2] = Cytotoxicity against human SAE cells at 1 to 10 ug/ml; assay type: cell-based
SAE [3] = test: Inhibition of CPE-induced MMP1 mRNA expression in human SAE cells after 24 hrs by quantitative RT-PCR analysis; assay type: functional, cell-based
SAE [4] = test: Inhibition of MMP1 mRNA expression in human SAE cells at 1 to 10 ug/ml after 24 hrs by quantitative RT-PCR analysis; assay type: functional, cell-based

Q: With `O=c1oc2c(O)c(O)cc3c(=O)oc4c(O)c(O)cc1c4c23` [ELLAGIC ACID] as the compound, how does the “fold change (FC)” value [1] read?
A: 6

Q: And the Activity [2]?
A: Non-toxic

Q: What about the inhibition (SAE [3]) of the same compound?
A: Dose-dependent effect

Q: What about the inhibition (SAE [4]) of the same compound?
A: Active
